Test [1] relates to BALB/c male mice. As to the kind of experiment: Mice Behavior in the Elevated Plus Maze. In kind it is in vivo. The text has this:
Plus Maze”. The length of each arm in the labyrinth was 30 cm, the width was 5 cm, the height of the walls was 15 cm. Two opposite arms were closed from sides and end faces by transparent walls, the other two arms were lit and opened. A mouse was placed in the center of the maze and for the next five minutes the number of entries the open and closed sections and the time spent in each type of arms was registered. […]

In another test the test system is SHK male mice. As to the kind of experiment: Novel object recognition by mice against the background of Scopolamine and MK-801. The class given is in vivo. The conditions noted are these: Scopolamine 1 mg/kg, MK-801 0.2 mg/kg. How it is done: The experiments were carried out in a cross like maze which consisted of 4 peripheral arms connected with the central chamber by 7×7 cm holes. The maze was made of black plastic and its arms were of 14×14×14 cm size. The top cover of the maze was transparent.
A mouse was placed in the central chamber of the maze and allowed to investigate the environment. Criterion of entering an arm by the animal was detecting of all its paws inside the arm. The test was considered to be completed when the mouse had accomplished 12 transitions between the arms (having made 13 visits). The floor of the maze was cleaned after each animal.
The test was carried out twice with each mouse with 1 hour interval.
During the first test each arm of the maze contained a circular plastic cup of 3 cm height and 7 cm diameter. In the second test the cover of each two opposing arms was replaced by a conical glass flask of 7 cm height and 4 cm across the bottom. The time the mouse spent in each arm of the maze was registered and the index of novel object recognition was calculated as the ratio of the time the mouse spent in the arms with the flasks to the time it spent in all arms of the maze. If no preference was given to the arms with novel objects the index was 0.5.
The mice spend more time in the arm containing novel objects that results in an increasing of recognition index. Scopolamine (1 mg/kg) and MK-801 (0.2 mg/kg) disturbed learning (memory) that leads to the lowering of recognition index.

Test [2] deals with BALB/c male mice. As to the kind of experiment: Passive Avoidance of Mice in the Shuttle Chamber, scopolamine or MK-801 (Example 8). The class given is in vivo. The conditions noted are these: scopolamine 0.3 mg/kg or MK-801 0.1 mg/kg. The protocol:
A shuttle chamber (Ugo Basile, Italy) consisted of two sections was used. […] The sections were connected through a hole which could be shut with a vertical door. The floor was made of transverse metal bars on which DC current impulses could be fed. Experiments were carried out in aged male mice of BALB/c line weighing 20-24 grams.
On the first day of the experiment 30 minutes before training the mice were injected intraintestinally with physiological solution of scopolamine (0.3 mg/kg) or Scopolamine in combination with antagonists of 5-HT6 receptors 1.2.1(2)HCl, 1.2.1(4)HCl or 1.2.1(5)HCl. Each group consisted of at least 8 animals. The animals were placed in the light section, and the latent period of the first entry into the dark chamber was registered. Then the vertical door was shut and the animal was punished by 0.6 mA DC current for 3 seconds. After that the animal was returned to its living cage. In 22-24 hours the same animal was placed again in the light section of the shuttle chamber and the latent period of its first entry into the dark section, the total time of its stay in the light section and the number of entries into the dark section were registered. Each observation lasted for 5 minutes.
The experiment was carried out as in example 7. […]

Test [3] deals with BALB/c male mice. As to the kind of experiment: Mice Training in the Morris Water maze, memory disturbed by Scopolamine. In kind it is in vivo. The note with it: Scopolamine 0.6 mg/kg, 1.2.1(5)HCl 0.1 mg/kg, 1.2.1(1)HCl 1 mg/kg, Tacrine 3 mg/kg. The protocol: A round pool of 100 cm in diameter and sides height of 30 cm was used. It was filled with water at 20-22° C. A round ceramic platform of 14 cm height was placed in the pool. Animals's behavior was registered with an automated computer video system in combination with software package of movement analysis Any-maze (Stoelting Co., US). The experiments were carried out on aged male mice of BALB/c line weighing 20-24 grams. Before the experiments mice suitable for training were selected. This was done by placing the platform 1 cm above the water level and putting an animal on the platform for 20 seconds. Then the mouse was sunk into the water on the opposite side of the pool, allowed to find the platform and climb it for 60 seconds, where it was left for additional 20 seconds. After that the mouse was repeatedly immersed into the water on the opposite side of the pool and allowed to look for the platform. If it failed in finding the platform within 60 seconds the experimentator helped it to find the platform and climb it. If the mice couldn't find the platform itself in two consecutive attempts it was excluded from the experiment. During the next two days the platform was placed 0.5 cm lower the water level. Every day the mice were given four attempts for finding the platform within 60 seconds. The time interval between the attempts was 20 seconds, during which the mice stayed on the platform. Every day before the first attempt the mice was placed on the platform for 20 seconds. The time needed for finding and climbing the platform was registered. The animals were sunk into water in two different places on the side of the pool opposite to the platform. […] The animals of the control group were injected with physiological solution. At least 8 animals were used in each group. On the third day the platform was removed and each animal was placed one time into the pool for a period of 60 seconds. The time each mouse spent in the area where the platform had been located during the previous days was registered. […]

The next test has as its target T1, 5-HT6 receptor (Homo sapiens, UniProt P50406).
T1 construct: expressed in transfected cells; host or cells: HEK 293
As to the kind of experiment: Inhibition of serotonin-stimulated intracellular cAMP in HEK 293 cells with expressed 5-HT6 receptor (LANCE cAMP). In kind it is cell-based. The conditions noted are these: serotonin-induced cAMP. The protocol: The cells HEK 293 (kidney cells of a human embryon) with an artificially expressed 5-HT6 receptor, activation of which with serotonin results in intracellular cAMP increasing, were used. The concentration of intracellular cAMP was determined using a LANCE cAMP reagent (PerkinElmer) by the method described by the manufacturer: [http://las.perkinelmer.com/content/Manuals/MAN_LANCEcAMP384KitUser.pdf].
The effectiveness of the compounds was estimated on the basis of their ability to reduce the concentration of intracellular cAMP induced by serotonin, FIG. 1.
(In general: TR-FRET usually uses a lanthanide donor and a delayed reading to cut background.)

A further test addresses H1 histamine receptor (Homo sapiens, UniProt P35367). As to the kind of experiment: Histamine-induced intracellular calcium in SK-N-SH cells (Fura 2 AM), Phase 1: block of calcium entry. (A change in cytosolic calcium serves as a functional read-out for many receptors and channels.)
Test [4] deals with BALB/c male mice. As to the kind of experiment: Passive Avoidance of Mice in a Shuttle Chamber, memory disturbed by scopolamine (Example 7). In kind it is in vivo. The conditions noted are these: scopolamine 0.3 mg/kg. How it is done:
A shuttle chamber (Ugo Basile, Italy) consisted of two sections was used. […] The sections were connected through a hole which could be shut with a vertical door. The floor was made of transverse metal bars on which DC current impulses could be fed. Experiments were carried out in aged male mice of BALB/c line weighing 20-24 grams. On the first day of the experiment 30 minutes before training the mice were injected intraintestinally with physiological solution of scopolamine (0.3 mg/kg) or Scopolamine in combination with antagonists of 5-HT6 receptors 1.2.1(2)HCl, 1.2.1(4)HCl or 1.2.1(5)HCl. Each group consisted of at least 8 animals. The animals were placed in the light section, and the latent period of the first entry into the dark chamber was registered. Then the vertical door was shut and the animal was punished by 0.6 mA DC current for 3 seconds. After that the animal was returned to its living cage. In 22-24 hours the same animal was placed again in the light section of the shuttle chamber and the latent period of its first entry into the dark section, the total time of its stay in the light section and the number of entries into the dark section were registered. Each observation lasted for 5 minutes. The experiment was carried out during the day time in an isolated laboratory using white noise at a level of about 70 decibel above the human hearing threshold. Scopolamine causes the disturbance of training (memory loss) which results in […] and a decreased number of entries into the dark section. The fact that 5-HT6 receptor antagonists can improve the learning ability that has been disturbed by scopolamine is regarded as evidence for their nootropic effect.

Results on 2 molecules are retold here after US8541437B2, “Substituted 2,3,4,5-tetrahydro-1H-pyrido[4,3-b]indoles, methods for the production and use thereof” (Alla Chem, LLC, priority 2007, dated 2013).

Each structure is given as a SMILES string.

Sequence of H1 histamine receptor (P35367 whole entry): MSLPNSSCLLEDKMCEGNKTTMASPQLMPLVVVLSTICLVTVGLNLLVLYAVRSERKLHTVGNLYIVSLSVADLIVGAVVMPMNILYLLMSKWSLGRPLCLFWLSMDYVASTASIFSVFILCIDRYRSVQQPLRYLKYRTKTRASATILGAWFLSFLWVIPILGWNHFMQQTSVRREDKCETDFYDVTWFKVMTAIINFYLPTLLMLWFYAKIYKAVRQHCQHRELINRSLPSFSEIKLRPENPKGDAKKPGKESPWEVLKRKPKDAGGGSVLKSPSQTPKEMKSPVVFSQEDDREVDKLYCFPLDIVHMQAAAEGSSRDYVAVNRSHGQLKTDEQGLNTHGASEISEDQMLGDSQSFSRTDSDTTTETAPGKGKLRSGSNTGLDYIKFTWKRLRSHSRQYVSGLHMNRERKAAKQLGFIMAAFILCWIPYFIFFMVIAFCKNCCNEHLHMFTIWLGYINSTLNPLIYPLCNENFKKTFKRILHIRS
T1 sequence (P50406 whole entry): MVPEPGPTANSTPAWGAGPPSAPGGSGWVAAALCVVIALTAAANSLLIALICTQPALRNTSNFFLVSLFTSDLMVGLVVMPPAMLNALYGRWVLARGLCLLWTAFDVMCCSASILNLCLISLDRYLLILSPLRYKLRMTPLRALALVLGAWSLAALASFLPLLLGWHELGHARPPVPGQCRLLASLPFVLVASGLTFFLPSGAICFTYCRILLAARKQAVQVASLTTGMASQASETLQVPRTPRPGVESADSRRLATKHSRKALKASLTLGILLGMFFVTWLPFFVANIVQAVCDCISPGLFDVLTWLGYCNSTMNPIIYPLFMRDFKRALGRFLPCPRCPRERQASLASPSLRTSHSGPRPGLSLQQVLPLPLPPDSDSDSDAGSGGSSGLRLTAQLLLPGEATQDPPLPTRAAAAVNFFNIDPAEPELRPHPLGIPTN
Protocol for H1 histamine receptor: SK-N-SH Cells (ATCC, USA) were grown in DMEM medium (Invitrogen, USA) containing 10% fetal calf serum (FBS) and Penicillin-Streptomycin antibiotics, in CO2 incubator (5% CO2) until getting the cell density 1*10^5 cells/cm^2. The cells were removed from the surface of the flask with TrypLE Express reagent (Invitrogen, USA), then collected by means of centrifugation and resuspended in Hybridoma Serum Free Medium (HSFM, Sigma, USA) providing the concentration of 4*10^6 cells/ml. For measuring the intracellular concentration of calcium the cells were loaded with the calcium-sensitive fluorescent dye Fura 2 AM (Invitrogen, USA) by incubating their suspension with the dye for 30 minutes at room temperature. Again, the cells were collected by centrifugation, resuspended in HSFM; incubated for 15 minutes, recollected by centrifugation, washed twice with HSFM and resuspended in HSFM setting up the concentration 4*10^6 cells/ml. The cells were diluted with an operating buffer (NaCl 0.145 M, KCl 0.0054 M, NaH2PO4 0.001 M, MgSO4 0.0008 M, CaCl2 0.0018 M, HEPES 0.03 M, D-glucose 0.0112 M pH 7.4) to the concentration of 1*10^5 cells/ml in a measuring cell with a magnet stirrer, after that the fluorescence registration was carried out in the mode of two-wavelength excitement (340 and 380 nm, respectively) with an emission wavelength of 510 nm (F1 and F2, respectively). In 20 seconds after the beginning of registration, 10 mM of histamine water solution was added (a final concentration is 10 μM). […] In order to estimate the biological activity of the compounds, their serial DMSO dilutions were prepared and the correlation between the influence of the compound on the histamine induced calcium stream and its concentration was determined. The transforming fluorescent signal into calcium concentration was carried out by means of the equation built in the program Super Ion Probe (Shimadzu) software. For this purpose the maximum concentration of free calcium was determined by adding 0.1 mg/ml of digitonine (Sigma, USA) up to 0.1 mg/ml, while the zero calcium concentration—by adding of ethylene-diamin-tetraacetate (EDTA) up to 10 mM. Kinetic curves of lowering intracellular calcium concentration after the addition of the tested compound in the presence of histamine were calculated with a single-phase exponential model using the Prism 4 software (GraphPad Software, Inc.): [Ca]=[Ca]max*exp(−K*T)+[Ca]min where T is the time after the tested compound was added, [Ca]max and [Ca]min are the maximum (the peak value after the addition of histamine) and the minimum (the equilibrium level the curve approached after the addition of the tested compound) concentrations of intracellular calcium, K is the rate constant of intracellular calcium concentration lowering calculated by minimization of least square deviations.
The calculated rate constants of calcium concentration lowering (K) were used to determine their dependence on the tested compound concentration (C); and by means of the program Prism 4 using this dependence the values of EC50 (the concentration of the tested compound corresponding to half-maximum increasing of the rate constant of intracellular calcium concentration lowering) were determined by virtue of four parameter equation
[formula] where KBkg and Kmax are the rate constants of calcium concentration lowering without and in the presence of infinitely large concentration of the tested compound, respectively; N is Hill's coefficient.

`Cc1ccc2c(c1)c1c(n2CCc2ccccc2)CCN(C)C1.Cl` [1.2.1(1)HCl, 2,8-dimethyl-5-(2-phenethyl)-2,3,4,5-tetrahydro-1H-pyrido[4,3-b]indole hydrochloride]: in the test on BALB/c male mice [1], the “tranquilizing action (elevated plus maze, FIG. 19-21)” value is reported as “exhibit a tranquilizing action, which is the most prominent”. In the test with SHK male mice, the “nootropic action (novel object recognition, FIG. 13-14)” value is given as “nootropic action, the level of which is the most prominent”. The “nootropic action (passive avoidance, FIGS. 5-10)” value in the test on BALB/c male mice [2] is “highest activity”. Besides, in the test on BALB/c male mice [3], the “improvement of mice's training (Morris water maze, FIG. 11-12)” value is reported as “statistically significant improvement of mice's training”.

Broadly, the IC50 is the point on the concentration scale where inhibition reaches its midpoint. Read a high IC50 as lower potency. What is called EC50 is the concentration that produces a half-maximal response. Turning to `Cc1ccc2c(c1)c1c(n2CCc2ccc(C)nc2)CCN(C)C1.Cl` [1.2.1(5)HCl, 2,8-dimethyl-5-[2-(6-methylpyridin-3-yl)ethyl]-2,3,4,5-tetrahydro-1H-pyrido[4,3-b]indole hydrochloride, reference compound], the “tranquilizing action (elevated plus maze, FIG. 19-21)” value in the test with BALB/c male mice [1] was “exhibit a tranquilizing action”. Also, the “nootropic action (novel object recognition, FIG. 13-14)” value with SHK male mice is “nootropic action”. This molecule also returned an IC50 against 5-HT6 receptor of 4400 nM. Besides, the “nootropic action (passive avoidance, FIGS. 5-10)” value with BALB/c male mice [2] is recorded as “act as nootropic”. Besides, the half-maximal effective concentration (EC50) at H1 histamine receptor worked out at 160 nM. Also, the “improvement of mice's training (Morris water maze, FIG. 11-12)” value in the test on BALB/c male mice [3] is “statistically significant improvement of mice's training”. For the same molecule, the “nootropic action (passive avoidance, FIGS. 2-4)” value in the test on BALB/c male mice [4] is given as “exhibit a nootropic action”.
